# Patent US6344211B1, “Transdermal absorption of active substances from subcooled melts” (LTS Lohmann Therapie-Systeme GmbH, priority 1994, dated 2002)
# Where two headings read alike, the source gives them in different places. Marks after values point to notes of the source that are not given here.
# How the values were obtained:
# [1] = dissociation constant (pKa) of the acids used; type: physicochemical; settings: determined by experiment
# Method: Column 1 indicates the number of the experiment, column 2 the concentration of buprenorphine base, column 3 the quality and quantity of the acid used, column 4 the dissociation constant of the acids used, column 5 the plasticizer, column 6 the polymers used, and column 7 the absorption rate under in-vitro-conditions. The relative amount of buprenorphine base diffusing through mice skin within 24 h, relative to the amount per TTS, is given. The penetration results were obtained using mice skin clamped in a Franz-Cell.
# It is seen from column 4 that the dissociation constants of the carboxylic acids used are quite similar. However, if the plasticizer, oleyl oleate, is used in a 10%-concentration each time, it can be seen from Examples 1 and 3 or 2 and 4 that only the carboxylic acids having a tendency to form subcooled melts cause a marked penetration increase under in-vitro conditions. […] This was compensated by a higher concentration of the two weaker acids, amounting to 15%, as compared to the concentration of the two stronger acids. However, it can also be seen that the dissociation constants are so similar that the absorption-promoting effect cannot be explained by the dissociation constants.
# [2] = cited from earlier work
structure (smiles),measurement,setting,value
CC(=O)CCC(=O)O [levulic acid],pKa value,[1],4.4**
C=CCCCCCCCCC(=O)O [undecenoic acid],pKa value,[2]; dissociation constant of the acid used in the TTS,4.5
O=C(O)CCCC(=O)O [glutaric acid],pKa value,"[2]; pKa I of glutaric acid, given for the glutaric acid monomethyl ester line",4.33*
